Results published in PMC12690121 (Nature Communications, 2025).

Tests used:
ArnC = target: T1, ArnC (Salmonella enterica, UniProt O52324); assay: MST; type: binding
T1 sequence (O52324 1-327): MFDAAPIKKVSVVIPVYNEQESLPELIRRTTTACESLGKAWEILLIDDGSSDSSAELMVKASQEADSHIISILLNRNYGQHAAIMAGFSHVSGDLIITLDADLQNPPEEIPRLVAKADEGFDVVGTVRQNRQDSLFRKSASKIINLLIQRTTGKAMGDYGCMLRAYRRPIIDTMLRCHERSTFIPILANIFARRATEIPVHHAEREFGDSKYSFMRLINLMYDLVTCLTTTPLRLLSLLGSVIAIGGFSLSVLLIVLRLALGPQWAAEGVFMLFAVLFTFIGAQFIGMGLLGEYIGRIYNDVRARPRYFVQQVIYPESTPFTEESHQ

cryo-EM structure = target: the molecule itself; assay: cryo-EM structure

`O=c1ccn([C@@H]2O[C@H](COP(=O)(O)OP(=O)(O)O)[C@@H](O)[C@H]2O)c(=O)[nH]1` [UDP] showed a Kd (ArnC) of 8.5 µM.

B1: ArnC from Salmonella enterica (ArnCSe) (enzyme)
chain: T1 sequence (O52324 1-327)
With B1 the “stoichiometry N” value (cryo-EM structure) was 4.
